Data as given in ChEMBL document CHEMBL1201862, “PubChem BioAssay data set” (2004).
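Five concentrations, 48 hours, 96-well plates. At the GI50, growth is halved.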 The source made the active and inactive calls. No stated cut-off is given here; in the data, active = GI50 up to about 1.1 µM and inactive = higher.

Experiments:
Test in all cases: NCI-60 cell line screen, 48 h
SNB-78 = tested on: SNB-78
SNB-19 = tested on: SNB-19
SN12C = tested on: SN12C
HCC 2998 = tested on: HCC 2998
SF-539 = tested on: SF-539
SK-MEL-28 = tested on: SK-MEL-28
UO-31 = tested on: UO-31
UACC-257 = tested on: UACC-257
CCRF-CEM = tested on: CCRF-CEM
NCI-H460 = tested on: NCI-H460
K562 = tested on: K562
CAKI-1 = tested on: CAKI-1
SK-MEL-2 = tested on: SK-MEL-2
ACHN = tested on: ACHN
KM-20L2 = tested on: KM-20L2
EKVX = tested on: EKVX
SF-268 = tested on: SF-268
A498 = tested on: A498
A549 = tested on: A549
RPMI-8226 = tested on: RPMI-8226
SK-MEL-5 = tested on: SK-MEL-5
TK-10 = tested on: TK-10
LOX IMVI = tested on: LOX IMVI
Malme-3M = tested on: Malme-3M
COLO 205 = tested on: COLO 205
KM12 = tested on: KM12
MOLT-4 = tested on: MOLT-4
M14 = tested on: M14
DMS-273 = tested on: DMS-273
SR = tested on: SR
LXFL 529 = tested on: LXFL 529
U-251 = tested on: U-251
OVCAR-5 = tested on: OVCAR-5
HT-29 = tested on: HT-29
UACC-62 = tested on: UACC-62
HCT-15 = tested on: HCT-15
M19-MEL = tested on: M19-MEL
DMS-114 = tested on: DMS-114
786-0 = tested on: 786-0
HCT-116 = tested on: HCT-116
HOP-92 = tested on: HOP-92
SW-620 = tested on: SW-620
SK-OV-3 = tested on: SK-OV-3
NCI-H522 = tested on: NCI-H522
HOP-62 = tested on: HOP-62
XF498 = tested on: XF498
OVCAR-8 = tested on: OVCAR-8
SF-295 = tested on: SF-295
SNB-75 = tested on: SNB-75
NCI-H23 = tested on: NCI-H23
NCI-H226 = tested on: NCI-H226
RXF 393 = tested on: RXF 393
OVCAR-3 = tested on: OVCAR-3
HOP-18 = tested on: HOP-18
IGROV-1 = tested on: IGROV-1
DLD-1 = tested on: DLD-1
HL-60 = tested on: HL-60
MCF7 = tested on: MCF7
T47D = tested on: T47D
OVCAR-4 = tested on: OVCAR-4
Hs-578T = tested on: Hs-578T
DU-145 = tested on: DU-145
MDA-MB-435 = tested on: MDA-MB-435
MDA-MB-231 = tested on: MDA-MB-231
MDA-N = tested on: MDA-N
PC-3 = tested on: PC-3
BT-549 = tested on: BT-549

## NC(=O)C(=O)N/N=C1\C(=O)N(c2ccc(Cl)cc2Cl)C(=O)C1C(=O)Nc1ccc(Cl)cc1Cl (stereo not drawn)
SNB-78
  GI50: > 100 µM (inactive)
SNB-19
  GI50: > 100 µM (inactive)
SN12C
  GI50: > 100 µM (inactive)
HCC 2998
  GI50: > 100 µM (inactive)
SF-539
  GI50: > 100 µM (inactive)
SK-MEL-28
  GI50: > 100 µM (inactive)
UO-31
  GI50: > 100 µM (inactive)
UACC-257
  GI50: > 100 µM (inactive)
CCRF-CEM
  GI50: > 100 µM (inactive)
NCI-H460
  GI50: > 100 µM (inactive)
K562
  GI50: > 100 µM (inactive)
CAKI-1
  GI50: > 100 µM (inactive)
SK-MEL-2
  GI50: > 100 µM (inactive)
ACHN
  GI50: > 100 µM (inactive)
KM-20L2
  GI50: > 100 µM (inactive)
EKVX
  GI50: > 100 µM (inactive)
SF-268
  GI50: > 100 µM (inactive)
A498
  GI50: > 100 µM (inactive)
A549
  GI50: > 100 µM (inactive)
RPMI-8226
  GI50: > 100 µM (inactive)
SK-MEL-5
  GI50: > 100 µM (inactive)
TK-10
  GI50: > 100 µM (inactive)
LOX IMVI
  GI50: > 100 µM (inactive)
Malme-3M
  GI50: > 100 µM (inactive)
COLO 205
  GI50: > 100 µM (inactive)
KM12
  GI50: > 100 µM (inactive)
MOLT-4
  GI50: > 100 µM (inactive)
M14
  GI50: > 100 µM (inactive)
DMS-273
  GI50: > 100 µM (inactive)
SR
  GI50: > 100 µM (inactive)
LXFL 529
  GI50: > 100 µM (inactive)
U-251
  GI50: > 100 µM (inactive)
OVCAR-5
  GI50: > 100 µM (inactive)
HT-29
  GI50: > 100 µM (inactive)
UACC-62
  GI50: > 100 µM (inactive)
HCT-15
  GI50: > 100 µM
M19-MEL
  GI50: > 100 µM (inactive)
DMS-114
  GI50: > 100 µM (inactive)
786-0
  GI50: > 100 µM (inactive)
HCT-116
  GI50: > 100 µM (inactive)
HOP-92
  GI50: > 100 µM (inactive)
SW-620
  GI50: > 100 µM (inactive)
SK-OV-3
  GI50: > 100 µM (inactive)
NCI-H522
  GI50: > 100 µM (inactive)
HOP-62
  GI50: > 100 µM (inactive)
XF498
  GI50: > 100 µM (inactive)
OVCAR-8
  GI50: > 100 µM (inactive)
SF-295
  GI50: > 100 µM (inactive)
SNB-75
  GI50: 28.8 µM (inactive)
NCI-H23
  GI50: > 100 µM (inactive)
NCI-H226
  GI50: > 100 µM (inactive)
RXF 393
  GI50: > 100 µM (inactive)
OVCAR-3
  GI50: > 100 µM (inactive)
HOP-18
  GI50: 76.9 µM (inactive)
IGROV-1
  GI50: > 100 µM (inactive)
DLD-1
  GI50: > 100 µM (inactive)
HL-60
  GI50: > 100 µM (inactive)

## Cc1ccc(/C=C2\CNC/C(=C\c3ccc(C)cc3)C2=O)cc1
SNB-78
  GI50: > 100 µM (inactive)
SNB-19
  GI50: 1.65 µM (inactive)
SN12C
  GI50: 2.52 µM (inactive)
HCC 2998
  GI50: 1.67 µM (inactive)
SF-539
  GI50: 2.2 µM (inactive)
SK-MEL-28
  GI50: 2.04 µM (inactive)
UO-31
  GI50: 1.77 µM (inactive)
UACC-257
  GI50: 6.46 µM (inactive)
CCRF-CEM
  GI50: 0.689 µM (active)
NCI-H460
  GI50: 1.48 µM (inactive)
K562
  GI50: 0.323 µM (active)
CAKI-1
  GI50: 2.46 µM (inactive)
SK-MEL-2
  GI50: 9.02 µM (inactive)
ACHN
  GI50: 2.19 µM (inactive)
KM-20L2
  GI50: 1.32 µM (inactive)
EKVX
  GI50: 3.92 µM (inactive)
MCF7
  GI50: 0.513 µM (active)
SF-268
  GI50: 2.53 µM (inactive)
T47D
  GI50: 2.65 µM (inactive)
A498
  GI50: 1.89 µM (inactive)
A549
  GI50: 2.83 µM (inactive)
RPMI-8226
  GI50: 0.248 µM (active)
SK-MEL-5
  GI50: 2.43 µM (inactive)
OVCAR-4
  GI50: 2.34 µM (inactive)
TK-10
  GI50: 5.48 µM (inactive)
LOX IMVI
  GI50: 0.615 µM (active)
Malme-3M
  GI50: 14.4 µM (inactive)
COLO 205
  GI50: 2.13 µM (inactive)
KM12
  GI50: 1.05 µM (active)
Hs-578T
  GI50: 1.89 µM (inactive)
MOLT-4
  GI50: 2.22 µM (inactive)
M14
  GI50: 2.26 µM (inactive)
DMS-273
  GI50: 1.24 µM (inactive)
DU-145
  GI50: 4.48 µM (inactive)
MDA-MB-435
  GI50: 3.03 µM (inactive)
SR
  GI50: 0.44 µM (active)
LXFL 529
  GI50: 1.28 µM (inactive)
MDA-MB-231
  GI50: 2.91 µM (inactive)
U-251
  GI50: 0.341 µM (active)
OVCAR-5
  GI50: 3.87 µM (inactive)
HT-29
  GI50: 0.617 µM (active)
MDA-N
  GI50: 2.49 µM (inactive)
UACC-62
  GI50: 2.04 µM (inactive)
HCT-15
  GI50: 1.49 µM
M19-MEL
  GI50: 1.57 µM (inactive)
DMS-114
  GI50: 1.86 µM (inactive)
786-0
  GI50: 1.35 µM (inactive)
HCT-116
  GI50: 0.313 µM (active)
HOP-92
  GI50: 4.54 µM (inactive)
PC-3
  GI50: 2.62 µM (inactive)
SW-620
  GI50: 1.12 µM (inactive)
SK-OV-3
  GI50: 2.4 µM (inactive)
NCI-H522
  GI50: 1.87 µM (inactive)
HOP-62
  GI50: 2.72 µM (inactive)
BT-549
  GI50: 2.24 µM (inactive)
XF498
  GI50: 2.59 µM (inactive)
OVCAR-8
  GI50: 2.19 µM (inactive)
SF-295
  GI50: 3.54 µM (inactive)
SNB-75
  GI50: 22.9 µM (inactive)
NCI-H23
  GI50: 1.83 µM (inactive)
NCI-H226
  GI50: 1.84 µM (inactive)
OVCAR-3
  GI50: 2.96 µM (inactive)
HOP-18
  GI50: > 10 µM (inactive)
IGROV-1
  GI50: 1.9 µM (inactive)
DLD-1
  GI50: 0.34 µM (active)
HL-60
  GI50: 0.479 µM (active)
